{"source": "patent US6693104B2", "about": "“Theobromine with an anti-carcinogenic activity” (Lotte Confectionery Co., Ltd., priority 2001, dated 2004)", "key": {"WB-F344 cells": {"test_system": "WB-F344 cells", "assay": "Scrape Loading/Dye Transfer (SL/DT) assay: suppression of gap junction channel by H2O2", "assay_type": "cell-based", "conditions": "200 μM theobromine, 400 μM H2O2, WB-F344 rat liver epithelial cells, Lucifer Yellow, FIG. 1", "protocol": "The effect of theobromine on the suppression of gap junction channel induced by H2O2 was examined according to a known method of Scrape Loading/Dye Transfer (SL/DT) assay (Upham, B. L., Kang, K. S., Cho, H. Y., & Trosko, J. E., Carcinogenesis, 18: 37-42, 1997), as further explained below.\nWB-F344 cells were used as a liver cell in order to examine its inhibitory effect on the suppression of gap junction channel in liver cells. The above liver cells were cultured in a MEM-media with 10% FBS, added with 100 IU/mL of penicillin and 100 μg/mL of streptomycin, in an incubator at 37° C. with 5% CO2 (Forma Scientific Co., Marjetta, Ohio, USA). The media compositions used in the above culture were purchased from GIBCO BRL (Grand Island, N.Y., USA). Thus cultured liver cells in media were transferred to each 2 mL petri dish (1×10^5 cells/mL) and cultured for 44 hr. Then the above culturing media were replaced with fresh media with various concentrations of theobromine while the control group was also replaced with fresh media only. Four hours after that, the media were treated theobromine with various concentrations 400 μM by H2O2 together while the control group was replaced with fresh medial. […]"}, "HepG2": {"test_system": "HepG2", "assay": "3H thymidine uptake assay, liver cancer cells", "assay_type": "cell-based", "conditions": "HepG2, various concentrations, 72 hr, FIG. 3", "protocol": "The inhibitory effect of theobromine on the proliferation of liver cancer cells was examined by using ^3H thymidine uptake assay (Marshall, E. S. et al. European J. Cancer, 30A: 1370-1376, 1994). HepG2 was used as liver cancer cells. The HepG2 liver cancer cells were cultured in RPMI-1640 media with 10% FBS, 100 IU/mL of penicillin and 100 μg/mL of streptomycin, in a 37° C. incubator with 5% CO2 (Forma Scientific Co., Marjetta, Ohio, USA). The media were purchased from GIBCO BRL (Grand Island, N.Y., USA). Thus cultured HepG2 liver cancer cells were transferred to 96 well plates, each of which contains 2×10^4 cells and were added with various concentrations of theobromine obtained from the reference examples 1-3 and were cultured for 72 hr. Six hours prior to recovery of the above cells, each well was added with 1 μCi of ^3H-Thymidine (Sigma, St. Louis, Mo., USA). After completion of the culture, the cells were recovered into a glass fiber filter (Brandel Inc., Gaithersburg, Mass., USA) by using a recovery instrument (Cambridge Scientific Inc., Cambridge, Mass., USA). The incorporation of ^3H-thymidine of recovered cells after combining with 3 mL of scintillation cocktail solution (Wallac, Turku, Finland) was examined in a liquid scintillation counter (Wallac, Turku, Finland). The whole process was repeated three times according to the above method."}, "SNU1": {"test_system": "SNU1", "assay": "3H thymidine uptake assay, gastric cancer cells", "assay_type": "cell-based", "conditions": "SNU1, various concentrations, FIG. 4"}, "SNUC2A": {"test_system": "SNUC2A", "assay": "3H thymidine uptake assay, colon cancer cells", "assay_type": "cell-based", "conditions": "various concentrations, FIG. 5"}, "[1]": {"assay_type": "in vivo", "conditions": "0.5 g/kg, in DMSO diluted in water, observed for 7 days", "protocol": "The toxicity of theobromine of the present invention was performed as follows."}}}
{"smiles": "Cn1cnc2c1c(=O)[nH]c(=O)n2C", "note": "[theobromine]", "values": [{"measurement": "inhibition of the suppression of gap junction channel by H2O2", "setting": "WB-F344 cells", "value": "completely inhibit the suppression of gap junction channel"}, {"measurement": "inhibition rate of DNA synthesis of liver cancer cells", "setting": "HepG2", "value": "increased in a dose-dependent manner"}, {"measurement": "inhibition rate of DNA synthesis of gastric cancer cells", "setting": "SNU1", "value": "increased in a dose-dependent manner"}, {"measurement": "inhibition rate of DNA synthesis of colon cancer cells", "setting": "SNUC2A", "value": "increased in a dose-dependent manner"}, {"measurement": "survival", "setting": "[1]", "value": "all mice survived"}]}
